Test results as given in patent US20240018132A1, “5-HYDROXY-1,4-NAPHTHALENEDIONE FOR USE IN THE TREATMENT OF CANCER” (GODAVARI BIOREFINERIES LIMITED, priority 2020, published 2024).

Key:
MDAMB231 [1] = test: In vitro sphere-forming assay (cancer stem cells), Mammosphere media; conditions: for viability at 0.0025 µM / viability at 0.025 µM / viability at 0.25 µM / viability at 2.5 µM / viability at 25 µM: Homo sapiens, MDA-MB-231, read-out: % Viability of spheres (MDAMB231); for 3D sphere count of MDAMB231: Mammosphere media, 2000 cells/well, n = 6 ± S.D
PC3 [2] = test: Soft agar colony-formation assay, prostate cancer; type: cell-based; conditions: for anticancer activity in comparison with cisplatin, soft agar, prostate cancer cell line: FIG. 52, PC3; for IC50: Homo sapiens, PC-3, 168 h, Soft Agar Assay, 1 week, Alamar Blue
Description: (§1) The Soft Agar Colony-formation Assay is an anchorage-independent growth assay in soft agar, which is one of the most stringent assays for detecting malignant transformation of cells. For this assay, malignant cells are cultured with appropriate controls in soft agar medium for 1-2 weeks. Following this incubation period, formed colonies can either be analyzed morphologically using cell stain and quantifying the number of colonies formed.
(§2) Briefly, for Soft Agar Assay a mixture of 50 ul of 2× medium (taken appropriately as per cell line) and 50 ul of 1.2% Bacto Agar were plated on to each well of 96 well micro titer assay plate. 10 ul of cells (of specific plating efficiency pre standardized for respective cell line) were mixed with 20 ul of 2× medium and 30 ul of 0.8% of Bacto Agar and 1.6 ul of drug (of appropriate concentration) in a vial and transferred to the solidified pre layers of the assay plates. The cells were then allowed to grow and form colonies at 37° C. and 5% CO2 for 1 week. An intermittent feeding with 50 ul of appropriate 2× medium was performed after 3 days of experimental set up. 16 ul of Alamar Blue (1.5 mg/ml) was then added to all the wells to quantify the developed colonies. The plates were incubated for 24 hrs at 37° C. Absorbance was then measured at 630 nm. XY graph of log Percent viability was then plotted against log drug concentration.
(§3) Following plating efficiencies were standardized for Soft Agar Assay: […]

MDAMB231 [3] = test: In vitro antiproliferative assay (MTT assay), breast cancer cell line; type: cell-based; conditions: Homo sapiens, MDA-MB-231, 48 h, MTT assay, breast cancer MDAMB231, 48 hrs drug incubation
Description: (§4) MTT assay is a simple and sensitive assay where, metabolic reducing activity of the cells is measured. The increase of this activity in time is taken as a parameter of cell growth. If treatment with a drug impairs this increase, the action is a consequence of growth inhibition, cell killing or both. […] All cell lines were cultured in a 37° C. incubator with a 5% CO2 environment. Compounds were dissolved in DMSO with a concentration of 0.1M (stock solution). Cells were seeded into 96-well plates at suitable plating efficiency.
(§5) Following plating efficiencies were standardized for MTT assay:
(§6) In the MTT procedure, the cells were plated in 96 well plates as per predetermined plating efficiency (Table1). The plates were then incubated for 24 hrs in 5% CO2 atmosphere at 37° C. Appropriate concentrations of the drugs were then added to the plate and further incubation was carried out for 48 hrs (in 5% CO2 atmosphere at 37° C.). The assay plate was then centrifuged twice at 3000 rpm for 3 mins and supernatant was then discarded. 100 ul of MTT solution (0.5 mg/ml) was then added to each well of the plate and it was further incubated for 4 hrs (in 5% CO2 atmosphere at 37° C.) Following 4 hr incubation, the plate was then centrifuged twice, and supernatant was aspirated off very carefully. 200 ul of DMSO was then added to each well to solubilize. MTT crystals and mixed well by shaking the plate. XY graph of log percent viability was then plotted against log drug concentration.

Human lymphocytes = test: Lymphocyte assay (MTT on normal cells); type: cell-based; conditions: Lymphocyte; human peripheral blood lymphocytes, MTT procedure
Description: Human lymphocytes were isolated from the peripheral blood. A pure population of lymphocytes was obtained based on differential centrifugation, in which diluted defibrinated blood was layered on a solution of sodium diatrizoate and polysucrose (HiSep LSM 1077) and centrifuged at low speeds for 30 mins.
Procedure: The separation of lymphocytes from fresh defibrinated blood was performed by the procedure described below: • 1. Diluted defibrinated fresh blood was overlaid gradually on (HiSeP LSM1077) and centrifuged at low speed for 30 mins. • 2. The lymphocyte layer (the buffy coat) was carefully removed in a new collection tube. • 3. The buffy coat was given another wash, by the diluent buffer Dulbecco's phosphate buffered saline (D.P.B.S) • 4. The supernatant was discarded and the pellet was resuspended in D.P.B.S. • 5. The viability of cells was checked by Haemocytometer. • 6. Cells with purity and viability of more than 95% were taken for the experiment. • 7. Purified lymphocytes were diluted at a concentration of 0.7 million/ml with sterile D.P.B.S and MTT procedure was performed exactly as described earlier.

PC3 [4] = test: In vitro antiproliferative assay (MTT assay), prostate cancer cell line; type: cell-based; conditions: Homo sapiens, PC-3, 48 h, MTT assay, prostate cancer PC3, 48 hrs drug incubation
Description: as §4, §5, §6

MDAMB231 [5] = test: Soft agar colony-formation assay, breast cancer; type: cell-based; conditions: for anticancer activity in comparison with cisplatin, soft agar, breast cancer cell line: FIG. 51, MDAMB231; for IC50: Homo sapiens, MDA-MB-231, 168 h, Soft Agar Assay, 1 week, Alamar Blue
Description: as §1, §2, §3

PC3 [6] = test: In vitro sphere-forming assay (cancer stem cells), Prostosphere media; conditions: for viability at 0.0025 µM / viability at 0.025 µM / viability at 0.25 µM / viability at 2.5 µM / viability at 25 µM: Homo sapiens, PC-3, read-out: % Viability of spheres (PC3); for 3D sphere count of PC3: Prostosphere media, 2000 cells/well, n = 6 ± S.D

Structure (SMILES)	viability at 0.0025 µM (MDAMB231 [1]) [%]	viability at 0.025 µM (MDAMB231 [1]) [%]	viability at 0.25 µM (MDAMB231 [1]) [%]	viability at 2.5 µM (MDAMB231 [1]) [%]	viability at 25 µM (MDAMB231 [1]) [%]	3D sphere count of MDAMB231 (MDAMB231 [1]; drug 0.0025 uM)	3D sphere count of MDAMB231 (MDAMB231 [1]; drug 0.025 uM)	3D sphere count of MDAMB231 (MDAMB231 [1]; drug 0.25 uM)	3D sphere count of MDAMB231 (MDAMB231 [1]; drug 2.5 uM)	3D sphere count of MDAMB231 (MDAMB231 [1]; drug 25 uM)	anticancer activity in comparison with cisplatin, soft agar, prostate cancer cell line (PC3 [2])	IC50 (PC3 [2]) [µM]	IC50 (MDAMB231 [3]) [µM]	IC50 (Human lymphocytes) [µM]	IC50 (PC3 [4]) [µM]	anticancer activity in comparison with cisplatin, soft agar, breast cancer cell line (MDAMB231 [5])	IC50 (MDAMB231 [5]) [µM]	viability at 0.0025 µM (PC3 [6]) [%]	viability at 0.025 µM (PC3 [6]) [%]	viability at 0.25 µM (PC3 [6]) [%]	also measured
O=C1C=C(OCCCCCCN2CCOCC2)C(=O)c2ccccc21 [Formula 68]	62	53	47	39	32	54(±2)	47(±2)	39(±3)	33(±2)	27(±2)	higher anticancer activity in comparison with cisplatin	2.53	3.18	5.58	4.73	higher anticancer activity in comparison with cisplatin	2.37	62	55	41	viability at 2.5 µM (PC3 [6]): 31%; viability at 25 µM (PC3 [6]): 24%; 3D sphere count of PC3 (PC3 [6]; drug 0.0025 uM): 54(±4); 3D sphere count of PC3 (PC3 [6]; drug 0.025 uM): 48(±3); 3D sphere count of PC3 (PC3 [6]; drug 0.25 uM): 36(±3); 3D sphere count of PC3 (PC3 [6]; drug 2.5 uM): 27(±2); 3D sphere count of PC3 (PC3 [6]; drug 25 uM): 21(±2)
O=C1C(Nc2ccc3c(c2)OCO3)=CC(=O)c2c(OCC(=O)N3CCOCC3)cccc21 [Formula 71]	79	64	53	34	13	65(±5)	53(±4)	44(±4)	28(±3)	11(±2)	higher anticancer activity in comparison with cisplatin	3.31	1.35	25.2	3.55	higher anticancer activity in comparison with cisplatin	1.79	95	65	52	viability at 2.5 µM (PC3 [6]): 37%; viability at 25 µM (PC3 [6]): 20%; 3D sphere count of PC3 (PC3 [6]; drug 0.0025 uM): 65(±5); 3D sphere count of PC3 (PC3 [6]; drug 0.025 uM): 53(±4); 3D sphere count of PC3 (PC3 [6]; drug 0.25 uM): 44(±4); 3D sphere count of PC3 (PC3 [6]; drug 2.5 uM): 28(±3); 3D sphere count of PC3 (PC3 [6]; drug 25 uM): 11(±2)
O=C1C=C(OCCCCN2CCOCC2)C(=O)c2ccccc21 [Formula 67]	80	69	56	48	37	67(±2)	58(±3)	47(±5)	40(±5)	31(±2)	higher anticancer activity in comparison with cisplatin	2.21	3.09	5.15	4.11	higher anticancer activity in comparison with cisplatin	3.17	70	64	51	viability at 2.5 µM (PC3 [6]): 44%; viability at 25 µM (PC3 [6]): 36%; 3D sphere count of PC3 (PC3 [6]; drug 0.0025 uM): 61(±5); 3D sphere count of PC3 (PC3 [6]; drug 0.025 uM): 56(±3); 3D sphere count of PC3 (PC3 [6]; drug 0.25 uM): 45(±3); 3D sphere count of PC3 (PC3 [6]; drug 2.5 uM): 39(±2); 3D sphere count of PC3 (PC3 [6]; drug 25 uM): 32(±3)
